Results from US11833162B2, “Macrocyclic derivatives, process for preparing same and pharmaceutical compositions containing same” (LES LABORATOIRES SERVIER, priority 2017, dated 2023).
Blank lines part the entries; values can stand above or below the compound they belong to.

Key:
[1] = test system: cleaved (activated) form of caspase 3 in RS4; 11 tumour lysates; experiment: Quantification of the cleaved form of caspase 3 in vivo (MSD ELISA) in RS4; 11 xenograft; design: species or system mice (SCID strain); key: ratio of cleaved caspase 3, treated vs control mice; conditions: oral, 2 hours' treatment
Protocol: The ability of the compounds of the invention to activate caspase 3 is evaluated in a xenograft model of RS4; 11 leukaemia cells. 1×10^7 RS4; 11 cells are grafted sub-cutaneously into immunosuppressed mice (SCID strain). 25 to 30 days after the graft, the animals are treated orally with the various compounds. After 2 hours' treatment, the tumour masses are recovered and lysed, and the cleaved (activated) form of caspase 3 is quantified in the tumour lysates. This quantification is carried out using the “Meso Scale Discovery (MSD) ELISA platform” test, which specifically assays the cleaved form of caspase 3. It is expressed in the form of an activation factor corresponding to the ratio between the quantity of cleaved caspase 3 in the treated mice divided by the quantity of cleaved caspase 3 in the control mice.

[2] = molecular target: Bcl-2 protein (histag-Bcl-2, UniProtKB P10415) (Homo sapiens, UniProt P10415); experiment: Inhibition of Bcl-2 by the fluorescence polarisation technique; type: binding; conditions: fluorescence polarisation, 2 hours incubation; read-out: IC50 (μM) Bcl-2 FP
Protocol: The fluorescence polarisation tests were carried out on microplates (384 wells). The Bcl-2 protein, labelled (histag-Bcl-2 such that Bcl-2 corresponds to the UniProtKB® primary accession number: P10415), at a final concentration of 5×10^−9M, is mixed with a fluorescent peptide (Fluorescein-REIGAQLRRMADDLNAQY), at a final concentration of 1.00×10^−9M in a buffer solution (Hepes 10 mM, NaCl 150 mM, Tween20 0.05%, pH 7.4), in the presence or absence of increasing concentrations of test compounds. After incubation for 2 hours, the fluorescence polarisation is measured.

[3] = test system: RS4; 11 leukaemia tumour line; experiment: In vitro cytotoxicity, Microculture Tetrazolium Assay (MTT); type: cell-based; conditions: Homo sapiens, RS4-11, 48 h, 11 cells, 48 hours exposure
Protocol: The cytotoxicity studies were carried out on the RS4; 11 leukaemia tumour line.
The cells are distributed onto microplates and exposed to the test compounds for 48 hours.
The cell viability is then quantified by a colorimetric assay, the Microculture Tetrazolium Assay (Cancer Res., 1987, 47, 939-942).

Chain of Bcl-2 protein (P10415 whole entry): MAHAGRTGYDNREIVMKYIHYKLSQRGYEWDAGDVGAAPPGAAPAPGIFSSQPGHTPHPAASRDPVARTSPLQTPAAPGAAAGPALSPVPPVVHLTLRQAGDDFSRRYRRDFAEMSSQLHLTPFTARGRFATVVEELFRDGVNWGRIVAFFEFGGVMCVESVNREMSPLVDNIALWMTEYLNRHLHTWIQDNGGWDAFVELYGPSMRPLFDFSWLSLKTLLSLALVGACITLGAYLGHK

SMILES: Cc1c2cc(n1C)-c1cc(Cl)ccc1C(=O)N1CCc3c(cccc3OCCCc3c(cnn3C)N(c3ccc(O)cc3)C2=O)C1 [Example 6, 11-Chloro-4-(4-hydroxyphenyl)-1,7,8-trimethyl-4,16,17,23,24,25-hexahydro-1H,14H-15,18-methano-6,9-(metheno)dibenzo[b,h]pyrazolo[4,3-p]-[1,6,11,15]oxatriazacycloicosine-5,14(8H)-dione]
Activation factor ± SEM (versus control) ([1]; 12.5 mg/kg, PEG/EtOH/Watcr): 6.8 ± 4.2 | Activation factor ± SEM (versus control) ([1]; 25 mg/kg, PEG/EtOH/Water): 32.3 ± 9.1 | IC50 [2]: 0.0052 µM | IC50 [3]: 0.0266 µM

SMILES: Cc1c2cc(n1C)-c1cc(Cl)ccc1C(=O)N1CCc3c(cccc3OCCc3c(cnn3C)N(c3ccc(O)cc3)C2=O)C1 [Example 16, 11-chloro-4-(4-hydroxyphenyl)-1,7,8-trimethyl-1,4,16,17,23,24-hexahydro-14H-15,18-methano-6,9-(metheno)dibenzo[l,r]pyrazolo[3,4-d][1,6,10,15]oxatriaza-cyclononadecine-5,14(8H)-dione]
Activation factor ± SEM (versus control) ([1]; 25 mg/kg, PEG/EtOH/Water): 31.7 ± 2.9 | Activation factor ± SEM (versus control) ([1]; 50 mg/kg, PEG/EtOH/Water): 75.1 ± 13.2 | IC50 [2]: 0.00555 µM | IC50 [3]: 0.0533 µM

SMILES: Cc1c(N2C(=O)c3cc(n(C)c3C)-c3cc(Cl)ccc3C(=O)N3CCCC(CCOc4cc(O)ccc42)C3)cc(C#N)n1C (stereo not drawn) [Example 29, 4-[16-Chloro-3-hydroxy-19,20-dimethyl-13,22-dioxo-6,7,8,9,10,11,19,22-octahydro-13H,23H-8,12-methano-21,18-(metheno)dibenzo[b,j][1,4,8,13]oxatriazacyclo-nonadecin-23-yl]-1,5-dimethyl-1H-pyrrole-2-carbonitrile]
Activation factor ± SEM (versus control) ([1]; 25 mg/kg, PEG/EtOH/Phosal): 13.3 ± 6.3 | Activation factor ± SEM (versus control) ([1]; 50 mg/kg, PEG/EtOH/Phosal): 54.4 ± 9.7 | IC50 [3]: 0.0705 µM

SMILES: Cc1c2cc(n1C)-c1cc(Cl)ccc1C(=O)N1Cc3ccccc3C(CCOc3c(cnn3C)N(c3ccc(O)cc3)C2=O)C1 (stereo not drawn) [Example 22, 11-Chloro-4-(4-hydroxyphenyl)-1,7,8-trimethyl-1,4,16,21,22,23-hexahydro-14H-15,21-methano-6,9-(metheno)dibenzo[j,o]pyrazolo[3,4-b][1,4,8,13]oxatriaza-cyclononadecine-5,14(8H)-dione]
IC50 [2]: 0.0153 µM | IC50 [3]: 0.0118 µM

SMILES: Cc1c2cc(n1C)-c1cc(Cl)ccc1C(=O)N1Cc3cccc(c3C1)OCCc1c(cnn1C)N(c1ccc(O)cc1)C2=O [Example 24, 11-Chloro-4-(4-hydroxyphenyl)-1,7,8-trimethyl-1,4,22,23-tetrahydro-14H,16H-15,17-methano-6,9-(metheno)dibenzo[b,g]pyrazolo[4,3-o][1,5,10,14]oxatriaza-cyclooctadecine-5,14(8H)-dione]
IC50 [2]: 0.0149 µM | IC50 [3]: 0.106 µM

Continued by falling IC50 [2], values first:

IC50 [2]: 0.00385 µM
SMILES: Cc1c2cc(n1C)-c1cc(Cl)ccc1C(=O)N1CCc3c(cccc3OCCOCCOc3ncc(cn3)N(c3ccc(O)cc3)C2=O)C1 [Example 38, 10-Chloro-2-(4-hydroxyphenyl)-5,6-dimethyl-24,27,30-trioxa-2,6,15,32,35-pentaazahexacyclo[29.2.2.1˜4,7˜.1˜15,19˜.0˜8,13˜.0˜18,23˜]heptatriaconta-1(33),4,7(37), 8,10,12,18,20,22,31,34-undecuene-3,14-dione]
IC50 [3]: 0.0231 µM

IC50 [2]: 0.00365 µM
SMILES: Cc1c2cc(n1C)-c1cc(Cl)ccc1C(=O)N1CCc3c(cccc3OCCCc3c(cc(C#N)n3C)N(c3ccc(O)cc3)C2=O)C1 [Example 18, 11-Chloro-4-(4-hydroxyphenyl)-1,7,8-trimethyl-5,14-dioxo-4,5,8,16,17,23,24,25-octahydro-1H,14H-15,18-methano-6,9-(metheno)dibenzo[b,h]-pyrrolo[3,2-p][1,6,11,15]oxatriazacycloicosine-2-carbonitrile]
Activation factor ± SEM (versus control) ([1]; 6.25 mg/kg, PEG/EtOH/Phosal): 7.8 ± 2.5 | Activation factor ± SEM (versus control) ([1]; 12.5 mg/kg, PEG/EtOH/Phosal): 31.7 ± 6.0 | IC50 [3]: 0.00836 µM
